The results in this text go back to patent US10793580B2, “Substituted pyrazoloazepin-8-ones and their use as phosphodiesterase inhibitors” (LEO Pharma A/S, priority 2016, dated 2020).

As a reminder, the IC50 is the concentration needed to halve the response being measured.

Structures are written as SMILES.

Sequence of human PDE4D catalytic domain (Q08499 380-740): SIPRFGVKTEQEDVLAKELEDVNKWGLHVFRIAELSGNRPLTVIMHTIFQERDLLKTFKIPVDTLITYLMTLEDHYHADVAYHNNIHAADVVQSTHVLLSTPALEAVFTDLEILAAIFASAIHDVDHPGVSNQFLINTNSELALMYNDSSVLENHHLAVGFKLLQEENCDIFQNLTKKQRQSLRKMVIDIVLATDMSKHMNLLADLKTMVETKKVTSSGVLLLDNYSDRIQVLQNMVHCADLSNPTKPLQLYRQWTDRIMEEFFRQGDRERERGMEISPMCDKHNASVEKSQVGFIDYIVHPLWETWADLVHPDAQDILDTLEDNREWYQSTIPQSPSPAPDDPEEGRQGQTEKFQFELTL

The target of one assay is human PDE4D catalytic domain (Homo sapiens (Human), UniProt Q08499). The assay is described as follows: PDE4 Assay (TR-FRET, FAM-cAMP cleavage). The class given is biochemical. To be noted: Table 16, Examples 277-296; read-out: PDE4 IC50 range. The method in brief:
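Readout is Tb-to-FAM time-resolved FRET after nanoparticle capture of AMP, the product of cleaving a cAMP/FAM-cAMP mixture by PDE4D catalytic domain (S380-L740) in the presence of titrated compound. Values are IC50 ranges in nM: concentration halving substrate cleavage relative to controls.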
For orientation: Time-resolved FRET reads energy transfer from a long-lived donor to a nearby acceptor.
Take `CCn1nc(C[C@@H](C)COC(=O)c2cnc(C)nc2)c2c1C(=O)NCC1(CCOCC1)C2` [Example 288, [(2R)-3-(1-ethyl-8-oxo-spiro[6,7-dihydro-4H-pyrazolo[3,4-c]azepine-5,4′-tetrahydropyran]-3-yl)-2-methyl-propyl] 2-methylpyrimidine-5-carboxylate]: the IC50 was less than 100 nM.

Still in this assay, the particulars now being: Table 17, Examples 297-316; read-out: PDE4 IC50 range.
As to `CCn1nc(CC(C)(C)COC(=O)c2cc(C)n(C)n2)c2c1C(=O)NCC1(CCOCC1)C2` [Example 309, [3-(1-ethyl-8-oxo-spiro[6,7-dihydro-4H-pyrazolo[3,4-c]azepine-5,4′-tetrahydro-pyran]-3-yl)-2,2-dimethyl-propyl] 1,5-dimethylpyrazole-3-carboxylate], the IC50 was less than 100 nM.

As to `CCn1nc(CC(C)(C)COC(=O)c2cnc(C)nc2)c2c1C(=O)NCC1(CCOCC1)C2` [Example 308, [3-(1-ethyl-8-oxo-spiro[6,7-dihydro-4H-pyrazolo[3,4-c]azepine-5,4′-tetrahydropyran]-3-yl)-2,2-dimethyl-propyl] 2-methylpyrimidine-5-carboxylate], the half-maximal inhibitory concentration (IC50) is less than 100 nM.

Still in this assay, the particulars now being: human PDE4D catalytic domain (UniProt Q08499 [S380-L740]); 50% inhibition of substrate cleavage; read-out: PDE4 IC50 range.
In the case of `CCn1nc(CCCOC(=O)C2CCCC2)c2c1C(=O)NCC1(CCOCC1)C2` [Example 5, 3-(1-ethyl-8-oxo-spiro[6,7-dihydro-4H-pyrazolo[3,4-c]azepine-5,4′-tetrahydropyran]-3-yl)propyl cyclopentanecarboxylate], the IC50 was less than 100 nM.

Take `CCn1nc(CCCOC(=O)c2cccc(C(=O)N3CCN(C)CC3)c2)c2c1C(=O)NCC1(CCOCC1)C2` [Example 119, 3-(1-ethyl-8-oxo-spiro[6,7-dihydro-4H-pyrazolo[3,4-c]azepine-5,4′-tetrahydropyran]-3-yl)propyl 3-(4-methylpiperazine-1-carbonyl)benzoate]: the IC50 is less than 100 nM.

For the molecule `CCn1nc(CCCOC(=O)C2CCOCC2)c2c1C(=O)NCC1(CCOCC1)C2` [Example 246, 3-(1-ethyl-8-oxo-spiro[6,7-dihydro-4H-pyrazolo[3,4-c]azepine-5,4′-tetrahydropyran]-3-yl)propyl tetrahydropyran-4-carboxylate], the IC50 is less than 100 nM.

Regarding `CCn1nc(C[C@@H](C)COC(=O)c2cccc(C(=O)N3CCCCC3)c2)c2c1C(=O)NCC1(CCOCC1)C2` [Example 182, [(2R)-3-(1-ethyl-8-oxo-spiro[6,7-dihydro-4H-pyrazolo[3,4-c]azepine-5,4′-tetrahydropyran]-3-yl)-2-methyl-propyl] 3-(piperidine-1-carbonyl)benzoate], the IC50 was less than 100 nM.

As to `CCn1nc(CCCCOC(=O)c2ccc(S(=O)(=O)N(C)C)cc2)c2c1C(=O)NCC1(CCOCC1)C2` [Example 132, 4-(1-ethyl-8-oxo-spiro[6,7-dihydro-4H-pyrazolo[3,4-c]azepine-5,4′-tetrahydropyran]-3-yl)butyl 4-(dimethyl-sulfamoyl)benzoate], the IC50 is less than 100 nM.

`CCn1nc(CCCOC(=O)c2ccc(S(=O)(=O)CC)cc2)c2c1C(=O)NCC1(CCOCC1)C2` [Example 77, 3-(1-ethyl-8-oxo-spiro[6,7-dihydro-4H-pyrazolo[3,4-c]azepine-5,4′-tetrahydro-pyran]-3-yl)propyl 4-ethylsulfonylbenzoate]: the IC50 is less than 100 nM.

For the molecule `CCn1nc(CC(C)(C)COC(=O)c2ccccc2OC)c2c1C(=O)NCC1(CCOCC1)C2` [Example 198, [3-(1-ethyl-8-oxo-spiro[6,7-dihydro-4H-pyrazolo[3,4-c]azepine-5,4′-tetrahydropyran]-3-yl)-2,2-dimethyl-propyl] 2-methoxybenzoate], the IC50 is less than 100 nM.

As to `CCn1nc(C[C@@H](C)COC(=O)c2cccc(C(=O)N3CCN(C)CC3)c2)c2c1C(=O)NCC1(CCOCC1)C2` [Example 184, [(2R)-3-(1-ethyl-8-oxo-spiro[6,7-dihydro-4H-pyrazolo[3,4-c]azepine-5,4′-tetrahydropyran]-3-yl)-2-methyl-propyl] 3-(4-methylpiperazine-1-carbonyl)benzoate], the IC50 is less than 100 nM.

For `CCn1nc(CCCOC(=O)c2ccc(C(=O)N(C)C)cc2)c2c1C(=O)NCC1(CCOCC1)C2` [Example 106, 3-(1-ethyl-8-oxo-spiro[6,7-dihydro-4H-pyrazolo[3,4-c]azepine-5,4′-tetrahydro-pyran]-3-yl)propyl 4-(dimethylcarbamoyl)benzoate], the half-inhibitory concentration (IC50) is less than 100 nM.

As to `CCn1nc(CCCOC(=O)c2cccc(C(C)=O)c2)c2c1C(=O)NCC1(CCOCC1)C2` [Example 28, 3-(1-ethyl-8-oxo-spiro[6,7-dihydro-4H-pyrazolo[3,4-c]azepine-5,4′-tetrahydropyran]-3-yl)propyl 3-acetylbenzoate], the IC50 is less than 100 nM.

Turning to `CCn1nc(CCCOC(=O)c2ccc(Cl)cc2OC)c2c1C(=O)NCC1(CCOCC1)C2` [Example 61, 3-(1-ethyl-8-oxo-spiro[6,7-dihydro-4H-pyrazolo[3,4-c]azepine-5,4′-tetrahydropyran]-3-yl)propyl 4-chloro-2-methoxy-benzoate], the IC50 was less than 100 nM.

With `CCn1nc(C[C@@H](C)COC(=O)CCS(C)(=O)=O)c2c1C(=O)NCC1(CCOCC1)C2` [Example 152, [(2R)-3-(1-ethyl-8-oxo-spiro[6,7-dihydro-4H-pyrazolo[3,4-c]azepine-5,4′-tetrahydropyran]-3-yl)-2-methyl-propyl] 3-methylsulfonylpropanoate], the 50% inhibitory concentration (IC50) was less than 100 nM.

In the case of `CCn1nc(CCCOC(=O)c2cc(C)n(C)n2)c2c1C(=O)NCC1(CCOCC1)C2` [Example 249, 3-(1-ethyl-8-oxo-spiro[6,7-dihydro-4H-pyrazolo[3,4-c]azepine-5,4′-tetrahydro-pyran]-3-yl)propyl 1,5-dimethylpyrazole-3-carboxylate], the IC50 was less than 100 nM.

Turning to `CCn1nc(CCCOC(=O)C(C)C)c2c1C(=O)NCC1(CCOCC1)C2` [Example 4, 3-(1-ethyl-8-oxo-spiro[6,7-dihydro-4H-pyrazolo[3,4-c]azepine-5,4′-tetrahydropyran]-3-yl)propyl 2-methylpropanoate], the IC50 is less than 100 nM.

Regarding `CCn1nc(CCOC(=O)c2ccc(S(C)(=O)=O)cc2)c2c1C(=O)NCC1(CCOCC1)C2` [Example 136, 2-(1-ethyl-8-oxo-spiro-[6,7-dihydro-4H-pyrazolo-[3,4-c]azepine-5,4′-tetra-hydropyran]-3-yl)ethyl 4-methylsulfonylbenzoate], the IC50 was less than 100 nM.

As to `CCn1nc(CCCOC(=O)c2cccc(F)c2C)c2c1C(=O)NCC1(CCOCC1)C2` [Example 21, 3-(1-ethyl-8-oxo-spiro[6,7-dihydro-4H-pyrazolo[3,4-c]azepine-5,4′-tetrahydropyran]-3-yl)propyl 3-fluoro-2-methyl-benzoate], the IC50 was less than 100 nM.

`CCn1nc(CCCCOC(=O)c2ccc(C)cc2)c2c1C(=O)NCC1(CCOCC1)C2` [Example 123, 4-(1-ethyl-8-oxo-spiro[6,7-dihydro-4H-pyrazolo[3,4-c]azepine-5,4′-tetrahydropyran]-3-yl)butyl 4-methylbenzoate]: the IC50 is less than 100 nM.

For the molecule `CCn1nc(CCCCOC(=O)c2coc(C)n2)c2c1C(=O)NCC1(CCOCC1)C2` [Example 266, 4-(1-ethyl-8-oxo-spiro[6,7-dihydro-4H-pyrazolo[3,4-c]azepine-5,4′-tetrahydropyran]-3-yl)butyl 2-methyloxazole-4-carboxylate], the IC50 was less than 100 nM.

Take `CCn1nc(CCCOC(=O)c2ccc(OC)c(C(F)(F)F)c2)c2c1C(=O)NCC1(CCOCC1)C2` [Example 79, 3-(1-ethyl-8-oxo-spiro[6,7-dihydro-4H-pyrazolo[3,4-c]azepine-5,4′-tetrahydro-pyran]-3-yl)propyl 4-methoxy-3-(trifluoromethyl)benzoate]: the IC50 is less than 100 nM.

Consider `CCn1nc(CC(C)(C)COC(=O)c2ccc(C(C)=O)cc2)c2c1C(=O)NCC1(CCOCC1)C2` [Example 200, [3-(1-ethyl-8-oxo-spiro[6,7-dihydro-4H-pyrazolo[3,4-c]azepine-5,4′-tetrahydropyran]-3-yl)-2,2-dimethyl-propyl] 4-acetylbenzoate], for which the IC50 is less than 100 nM.

Turning to `CCc1ccc(C(=O)OC[C@H](C)Cc2nn(CC)c3c2CC2(CCOCC2)CNC3=O)cc1` [Example 148, [(2R)-3-(1-ethyl-8-oxo-spiro[6,7-dihydro-4H-pyrazolo[3,4-c]azepine-5,4′-tetrahydropyran]-3-yl)-2-methyl-propyl] 4-ethylbenzoate], the IC50 was less than 100 nM.

In the case of `CCn1nc(CCCOC(=O)c2ccc(C(=O)N3CCN(C(C)=O)CC3)cc2)c2c1C(=O)NCC1(CCOCC1)C2` [Example 111, 3-(1-ethyl-8-oxo-spiro[6,7-dihydro-4H-pyrazolo[3,4-c]azepine-5,4′-tetrahydropyran]-3-yl)propyl 4-(4-acetylpiperazine-1-carbonyl)benzoate], the IC50 was less than 100 nM.

For the molecule `CCn1nc(CCCCOC(=O)C2CCCC2)c2c1C(=O)NCC1(CCOCC1)C2` [Example 122, 4-(1-ethyl-8-oxo-spiro[6,7-dihydro-4H-pyrazolo[3,4-c]azepine-5,4′-tetrahydropyran]-3-yl)butyl cyclopentane-carboxylate], the IC50 was less than 100 nM.

Consider `CCn1nc(CCCOC(=O)c2ccc(F)c(C#N)c2)c2c1C(=O)NCC1(CCOCC1)C2` [Example 30, 3-(1-ethyl-8-oxo-spiro[6,7-dihydro-4H-pyrazolo[3,4-c]azepine-5,4′-tetrahydropyran]-3-yl)propyl 3-cyano-4-fluoro-benzoate], for which the IC50 is less than 100 nM.

For the molecule `CCn1nc(CCCCOC(=O)c2ccc(S(C)(=O)=O)cc2)c2c1C(=O)NCC1(CCOCC1)C2` [Example 130, 4-(1-ethyl-8-oxo-spiro[6,7-dihydro-4H-pyrazolo[3,4-c]azepine-5,4′-tetrahydropyran]-3-yl)butyl 4-methylsulfonyl-benzoate], the IC50 is less than 100 nM.

Consider `CCn1nc(CCCOC(=O)c2cccc(C(=O)N(C)C)c2)c2c1C(=O)NCC1(CCOCC1)C2` [Example 115, 3-(1-ethyl-8-oxo-spiro[6,7-dihydro-4H-pyrazolo[3,4-c]azepine-5,4′-tetrahydropyran]-3-yl)propyl 3-(dimethyl-carbamoyl)benzoate], for which the IC50 was less than 100 nM.
